# Experimental data published in patent US20240279278A1, “NMU RECEPTOR 2 AGONISTS” (Boehringer Ingelheim International GmbH, priority 2023, published 2024).
# Residues, ends and D or L forms follow the SMILES beside them.
# Tests used:
# Format in all cases: cell-based
# human NMUR2 receptor [1] = target: T1, human NMUR2 receptor (Homo sapiens, UniProt Q9GZQ4); assay: IP1 Gq HTRF assay, activation of human NMUR2 in buffer; parameters: expressed in transfected cells; host or cells: CHO-K1; settings: CHO-K1 cells expressing human NMUR2, stimulation buffer with 0.1% BSA; read-out: EC50 (hNMUR2) buffer
# T1 sequence (Q9GZQ4 whole entry): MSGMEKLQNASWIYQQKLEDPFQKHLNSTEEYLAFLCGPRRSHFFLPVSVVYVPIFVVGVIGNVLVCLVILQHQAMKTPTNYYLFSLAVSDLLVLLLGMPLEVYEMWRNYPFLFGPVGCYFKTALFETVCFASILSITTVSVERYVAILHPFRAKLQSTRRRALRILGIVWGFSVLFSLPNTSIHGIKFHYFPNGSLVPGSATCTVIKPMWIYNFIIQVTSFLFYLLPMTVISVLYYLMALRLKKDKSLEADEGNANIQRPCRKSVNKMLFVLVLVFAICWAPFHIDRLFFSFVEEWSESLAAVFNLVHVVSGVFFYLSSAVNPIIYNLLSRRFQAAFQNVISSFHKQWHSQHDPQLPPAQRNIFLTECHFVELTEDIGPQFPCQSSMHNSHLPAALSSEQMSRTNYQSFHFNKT
# Text: (§1) Example 3: IP1 Gq HTRF Assay Activation of Human NMUR2 or Human NMUR1 in Buffer Application of the Homogenous Time Resolved Fluorescence (HTRF) technology optimized for Gq coupled receptors has been described in detail in the Cisbio IP-One Gq kit manual. In brief, a FRET signal (FRET: fluorescence resonance energy transfer) is generated between the donor label of an IP-One antibody (anti-IP1-Tb) and the acceptor label of a tagged IP-One (IP1-d2). Agonism of a Gq coupled receptor increases intracellular IP-One, which competes with labeled IP-One and leads to a reduction of the FRET signal. Frozen stocks of CHO-K1 cells stably expressing the human NMUR1 or NMUR2 receptor were thawed and 5000 cells were seeded in culture medium (HAM'S F12, 10% FCS) into each well of a 384-well assay plate. After seeding, cells were incubated for 24 h in a humidified incubator at 37° C. and 5% CO2. Next, cells were washed once with 50 μL of wash buffer (20 mM Hepes, 1×HBSS, pH 7.4), followed by addition of either 10 μL of stimulation buffer (20 mM Hepes, 1×HBSS, 50 mM LiCl, 0.1% BSA, pH 7.4). Peptide agonists to be tested were dissolved in 100% DMSO and pre-diluted in stimulation buffer at a suitable concentration range for an 8 pt dose-response curve. 5 μL of peptide pre-dilution were then added to each well, followed by another 5 μL of stimulation buffer to give a final concentration of 1% DMSO. Samples were subsequently incubated for 1 hour in a humidified incubator at 37° C. After addition of 5 μL each of IP1-d2 and anti-IP1-Tb, samples were incubated for another 1 hour at room temperature and FRET signals (ratio 665 nm/620 nm) were measured. EC50 values were calculated by nonlinear regression using a 4-parameter sigmoidal curve fit.
# human NMUR2 receptor [2] = target: T1, human NMUR2 receptor; assay: IP1 Gq HTRF assay, activation of human NMUR2 in human plasma; parameters: expressed in transfected cells; host or cells: CHO-K1; settings: CHO-K1 cells expressing human NMUR2, 100% human plasma; read-out: EC50 (hNMUR2) human plasma
# Text: Example 4: IP1 Gq HTRF Assay Activation of Human NMUR2 in Human Plasma Application of the Homogenous Time Resolved Fluorescence (HTRF) technology optimized for Gq coupled receptors has been described in detail in the Cisbio IP-One Gq kit manual. In brief, a FRET signal is generated between the donor label of an IP-One antibody (anti-IP1-Tb) and the acceptor label of a tagged IP-One (IP1-d2). Agonism of a Gq coupled receptor increases intracellular IP-One, which competes with labeled IP-One and leads to a reduction of the FRET signal. Frozen stocks of CHO-K1 cells stably expressing the human NMUR1 receptor or human NMUR2 receptor were thawed and 5000 cells were seeded in culture medium (HAM'S F12, 10% FCS) into each well of a 384-well assay plate. After seeding, cells were incubated for 24 h in a humidified incubator at 37° C. and 5% CO2. Next, cells were washed once with […] of wash buffer (20 mM Hepes, 1×HBSS, pH 7.4), followed by addition of […] (100% human plasma, 50 mM LiCl). Peptide agonists to be tested were dissolved in 100% DMSO and pre-diluted in plasma at a suitable concentration range for an 8 pt dose-response curve. 5 μL of peptide pre-dilution were then added to each well, followed by another 5 μL of plasma to give a final concentration of 1% DMSO. Samples were subsequently incubated for 1 hour in a humidified incubator at 37° C. The plasma solution was replaced by 20 μL of stimulation buffer. After addition of 5 μL each of IP1-d2 and anti-IP1-Tb, samples were incubated for another 1 hour at room temperature and FRET signals (ratio 665 nm/620 nm) were measured. EC50 values were calculated by nonlinear regression using a 4-parameter sigmoidal curve fit.
# human NMUR1 receptor = target: T2, human NMUR1 receptor (Homo sapiens, UniProt Q9HB89); assay: IP1 Gq HTRF assay, activation of human NMUR1 in buffer; settings: CHO-K1 cells expressing human NMUR1, stimulation buffer with 0.1% BSA; read-out: EC50 (hNMUR1) buffer
# T2 construct: expressed in transfected cells; host or cells: CHO-K1
# T2 sequence (Q9HB89 1-426): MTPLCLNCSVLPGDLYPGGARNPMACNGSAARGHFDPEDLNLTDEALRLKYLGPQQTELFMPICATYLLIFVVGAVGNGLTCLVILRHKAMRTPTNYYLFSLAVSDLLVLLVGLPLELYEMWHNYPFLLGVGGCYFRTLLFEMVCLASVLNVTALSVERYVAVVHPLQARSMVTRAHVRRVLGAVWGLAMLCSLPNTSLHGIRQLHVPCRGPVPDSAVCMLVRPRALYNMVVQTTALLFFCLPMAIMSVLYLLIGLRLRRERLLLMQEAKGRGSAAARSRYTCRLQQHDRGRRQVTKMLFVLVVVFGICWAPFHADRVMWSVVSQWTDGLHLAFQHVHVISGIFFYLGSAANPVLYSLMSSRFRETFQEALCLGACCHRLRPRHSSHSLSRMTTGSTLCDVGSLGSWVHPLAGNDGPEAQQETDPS
# Text: as §1
Compound,EC50 (human NMUR2 receptor [1]) [nM],EC50 (human NMUR2 receptor [2]) [nM],EC50 (human NMUR1 receptor) [nM]
"CCCC[C@H](NC(=O)[C@H](CC(C)C)N(C)C(=O)[C@H](Cc1ccccc1)NC(=O)[C@H](Cc1ccc(O)cc1)NC(=O)CN1CCN(CCNC(=O)CN(C)C(=O)CN(C)C(=O)CN(C)C(=O)CN(C)C(=O)CN(C)C(=O)CN(C)C(=O)CN(C)C(=O)CN(C)C(=O)CN(C)C(=O)CN(C)C(=O)CN(C)C(=O)CN(C)C(=O)CN(C)C(=O)CN(C)C(=O)CN(C)C(=O)CC[C@H](NC(=O)CC[C@H](NC(=O)CC[C@H](NC(=O)CCCCCCCCCCCCCCCCC(=O)O)C(=O)O)C(=O)O)C(=O)O)CC1)C(=O)N[C@@H](Cc1c[nH]cn1)C(=O)N(C)[C@@H](C)C(=O)N[C@@H](CCCNC(=N)N)C(=O)NCC(N)=O [Compound 55, C18DA-gGlu3-Sar15-AEPipAc-Tyr-Phe-NMeLeu-Nle-His-NMeAla-Arg-Gly-NH2] (HELM PEPTIDE1{[O=C(O)CCCCCCCCCCCCCCCCC(=O)[*:2]].[gGlu].[gGlu].[gGlu].[Sar].[Sar].[Sar].[Sar].[Sar].[Sar].[Sar].[Sar].[Sar].[Sar].[Sar].[Sar].[Sar].[Sar].[Sar].[O=C(CN1CCN(CCN[*:1])CC1)[*:2]].Y.F.[meL].[Nle].H.[meA].R.G.[am]}$$$$V2.0)",29,294,> 1000
"CCCC[C@H](NC(=O)[C@H](CC(C)C)N(C)C(=O)[C@H](Cc1ccccc1)NC(=O)[C@H](Cc1ccc(O)cc1)NC(=O)CN1CCN(CCNC(=O)CN(C)C(=O)CN(C)C(=O)CN(C)C(=O)CN(C)C(=O)CN(C)C(=O)CN(C)C(=O)CN(C)C(=O)CN(C)C(=O)CN(C)C(=O)CN(C)C(=O)CN(C)C(=O)CN(C)C(=O)CC[C@H](NC(=O)CC[C@H](NC(=O)CC[C@H](NC(=O)CC[C@H](NC(=O)CCCCCCCCCCCCCCCCCCC(=O)O)C(=O)O)C(=O)O)C(=O)O)C(=O)O)CC1)C(=O)N[C@@H](CCCN)C(=O)N(C)[C@@H](C)C(=O)N[C@@H](CCCNC(=N)N)C(=O)NCC(N)=O [Compound 13, C20DA-gGlu4-Sar12-AEPipAc-Tyr-Phe-NMeLeu-Nle-Orn-NMeAla-Arg-Gly-NH2]",3.5,10.2,1200
"CCCC[C@H](NC(=O)[C@H](CC(C)C)N(C)C(=O)[C@H](Cc1ccccc1)NC(=O)[C@H](Cc1ccc(O)cc1)NC(=O)CN1CCN(CCNC(=O)CN(C)C(=O)CN(C)C(=O)CN(C)C(=O)CN(C)C(=O)CN(C)C(=O)CN(C)C(=O)CN(C)C(=O)CN(C)C(=O)CN(C)C(=O)CN(C)C(=O)CN(C)C(=O)CN(C)C(=O)CC[C@H](NC(=O)CC[C@H](NC(=O)CC[C@H](NC(=O)CC[C@H](NC(=O)CCCCCCCCCCCCCCCCCCC(=O)O)C(=O)O)C(=O)O)C(=O)O)C(=O)O)CC1)C(=O)N[C@@H](CCCNC(=N)N)C(=O)N1CCC[C@H]1C(=O)N[C@@H](CCCNC(=N)N)C(=O)NCC(N)=O [Compound 39, C20DA-gGlu4-Sar12-AEPipAc-Tyr-Phe-NMeLeu-Nle-Arg-Pro-Arg-Gly-NH2]",2.5,10.4,190
"CCCC[C@H](NC(=O)[C@H](CC(C)C)N(C)C(=O)[C@H](Cc1ccccc1)NC(=O)[C@H](Cc1ccc(O)cc1)NC(=O)CN1CCN(C(=O)CN(C)C(=O)CN(C)C(=O)CN(C)C(=O)CN(C)C(=O)CN(C)C(=O)CN(C)C(=O)CN(C)C(=O)CN(C)C(=O)CN(C)C(=O)CN(C)C(=O)CN(C)C(=O)CN(C)C(=O)CN(C)C(=O)CN(C)C(=O)CN(C)C(=O)CC[C@H](NC(=O)CC[C@H](NC(=O)CC[C@H](NC(=O)CCCCCCCCCCCCCCCCC(=O)O)C(=O)O)C(=O)O)C(=O)O)CC1)C(=O)N[C@@H](CCN)C(=O)N1CCC[C@H]1C(=O)N[C@@H](CCCNC(=N)N)C(=O)NCC(N)=O [Compound 76, C18DA-gGlu3-Sar15-PipAc-Tyr-Phe-NMeLeu-Nle-Dbu-Pro-Arg-Gly-NH2] (HELM PEPTIDE1{[O=C(O)CCCCCCCCCCCCCCCCC(=O)[*:2]].[gGlu].[gGlu].[gGlu].[Sar].[Sar].[Sar].[Sar].[Sar].[Sar].[Sar].[Sar].[Sar].[Sar].[Sar].[Sar].[Sar].[Sar].[Sar].[O=C(CN1CCN([*:1])CC1)[*:2]].Y.F.[meL].[Nle].[Dab].P.R.G.[am]}$$$$V2.0)",1.1,6.2,1100
"CCCC[C@H](NC(=O)[C@H](CC(C)C)N(C)C(=O)[C@H](Cc1ccccc1)NC(=O)[C@H](Cc1ccc(O)cc1)NC(=O)CN1CCN(CCNC(=O)CN(C)C(=O)CN(C)C(=O)CN(C)C(=O)CN(C)C(=O)CN(C)C(=O)CN(C)C(=O)CN(C)C(=O)CN(C)C(=O)CN(C)C(=O)CN(C)C(=O)CN(C)C(=O)CN(C)C(=O)CC[C@H](NC(=O)CC[C@H](NC(=O)CC[C@H](NC(=O)CC[C@H](NC(=O)CCCCCCCCCCCCCCCCCCC(=O)O)C(=O)O)C(=O)O)C(=O)O)C(=O)O)CC1)C(=O)N[C@@H](CCCN)C(=O)N1CCC[C@H]1C(=O)N[C@@H](CCCNC(=N)N)C(=O)NCC(N)=O [Compound 40, C20DA-gGlu4-Sar12-AEPipAc-Tyr-Phe-NMeLeu-Nle-Orn-Pro-Arg-Gly-NH2]",4.5,11.3,
"CCCC[C@H](NC(=O)[C@H](CC(C)C)N(C)C(=O)[C@H](Cc1ccccc1)NC(=O)[C@H](Cc1ccc(O)cc1)NC(=O)CN1CCN(CCNC(=O)CN(C)C(=O)CN(C)C(=O)CN(C)C(=O)CN(C)C(=O)CN(C)C(=O)CN(C)C(=O)CN(C)C(=O)CN(C)C(=O)CN(C)C(=O)CC[C@H](NC(=O)CC[C@H](NC(=O)CCCCCCCCCCCCCCCCC(=O)O)C(=O)O)C(=O)O)CC1)C(=O)N[C@@H](CCCNC(=N)N)C(=O)N(C)[C@@H](C)C(=O)N[C@@H](CCCNC(=N)N)C(=O)NCC(N)=O [Compound 66, C18DA-gGlu2-Sar9-AEPipAc-Tyr-Phe-NMeLeu-Nle-Arg-NMeAla-Arg-Gly-NH2] (HELM PEPTIDE1{[O=C(O)CCCCCCCCCCCCCCCCC(=O)[*:2]].[gGlu].[gGlu].[Sar].[Sar].[Sar].[Sar].[Sar].[Sar].[Sar].[Sar].[Sar].[O=C(CN1CCN(CCN[*:1])CC1)[*:2]].Y.F.[meL].[Nle].R.[meA].R.G.[am]}$$$$V2.0)",1.6,18.9,
